# Laboratory results reported in US9278968B2, “Imidazopyridine compounds” (ASTELLAS PHARMA INC., priority 2012, dated 2016).
# How the values were obtained:
# [1] = system: hind limb blood flow in rats anesthetized with pentobarbital; test: Blood flow increasing action in vivo (hind limb blood flow, anesthetized rats); parameters: species or system Wistar male rats; settings: oral, 2 hours after administration, effective when blood flow rate 130% or more of solvent group
# Protocol: The hind limb blood flow increasing action in rats anesthetized with pentobarbital was confirmed by the following test method.
# Wistar male rats, 11- to 14-week (Japan SLC, Inc.) were used. An administration liquid was prepared by adding N,N-dimethyl formamide, Polyethylene Glycol 400, TWEEN 80, a 0.5% methyl cellulose aqueous solution, a 0.5 M aqueous sodium hydrogen carbonate solution, and 0.1 M hydrochloric acid to the test compound and dissolving the Example compound in an appropriate manner depending on the compound. The prepared administration liquid was orally administered, and 2 hours later, the hind limb blood flow increasing action was evaluated under anesthesia with intraperitoneally administration of 60 mg/kg of pentobarbital The hind limb blood flow was measured using a laser blood flow imaging device (PIM II Integral). By taking the average blood flow rate of a group with the administration of a solvent as 100%, the compound was evaluated to be effective when the blood flow rate was 130% or more by the administration of the compound.
# [2] = target: human purified sGC (heterodimer of sGCα1 and sGCβ1) (Homo sapiens (Human), UniProt Q02108+Q02153); test: sGC activation test (cGMP produced, HTRF); assay type: biochemical; settings: maximum activity of Preparation Example 200 compound (maximum 100 μM) taken as 100%; with SNP; read-out: EC50 (concentration giving 50% of maximum activity)
# Chain of human purified sGC (heterodimer of sGCα1 and sGCβ1) (Q02108 whole entry): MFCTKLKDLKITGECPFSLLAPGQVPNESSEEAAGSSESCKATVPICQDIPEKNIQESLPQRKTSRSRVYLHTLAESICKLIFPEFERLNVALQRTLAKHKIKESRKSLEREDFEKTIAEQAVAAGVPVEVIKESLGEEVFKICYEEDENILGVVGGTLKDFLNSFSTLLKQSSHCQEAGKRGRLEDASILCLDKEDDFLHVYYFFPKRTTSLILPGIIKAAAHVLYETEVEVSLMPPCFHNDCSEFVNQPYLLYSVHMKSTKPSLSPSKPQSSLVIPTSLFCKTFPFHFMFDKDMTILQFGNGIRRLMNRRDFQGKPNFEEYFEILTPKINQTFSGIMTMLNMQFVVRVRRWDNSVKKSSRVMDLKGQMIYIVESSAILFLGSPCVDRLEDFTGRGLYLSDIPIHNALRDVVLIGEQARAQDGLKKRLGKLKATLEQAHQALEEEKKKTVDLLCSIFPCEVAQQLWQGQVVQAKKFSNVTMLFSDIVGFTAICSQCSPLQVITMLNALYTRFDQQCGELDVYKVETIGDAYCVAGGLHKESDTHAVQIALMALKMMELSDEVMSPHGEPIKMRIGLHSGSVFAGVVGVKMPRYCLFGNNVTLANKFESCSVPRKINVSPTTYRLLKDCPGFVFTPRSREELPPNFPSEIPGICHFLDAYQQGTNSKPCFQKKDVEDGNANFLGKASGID
# Chain of human purified sGC (heterodimer of sGCα1 and sGCβ1) (Q02153 whole entry): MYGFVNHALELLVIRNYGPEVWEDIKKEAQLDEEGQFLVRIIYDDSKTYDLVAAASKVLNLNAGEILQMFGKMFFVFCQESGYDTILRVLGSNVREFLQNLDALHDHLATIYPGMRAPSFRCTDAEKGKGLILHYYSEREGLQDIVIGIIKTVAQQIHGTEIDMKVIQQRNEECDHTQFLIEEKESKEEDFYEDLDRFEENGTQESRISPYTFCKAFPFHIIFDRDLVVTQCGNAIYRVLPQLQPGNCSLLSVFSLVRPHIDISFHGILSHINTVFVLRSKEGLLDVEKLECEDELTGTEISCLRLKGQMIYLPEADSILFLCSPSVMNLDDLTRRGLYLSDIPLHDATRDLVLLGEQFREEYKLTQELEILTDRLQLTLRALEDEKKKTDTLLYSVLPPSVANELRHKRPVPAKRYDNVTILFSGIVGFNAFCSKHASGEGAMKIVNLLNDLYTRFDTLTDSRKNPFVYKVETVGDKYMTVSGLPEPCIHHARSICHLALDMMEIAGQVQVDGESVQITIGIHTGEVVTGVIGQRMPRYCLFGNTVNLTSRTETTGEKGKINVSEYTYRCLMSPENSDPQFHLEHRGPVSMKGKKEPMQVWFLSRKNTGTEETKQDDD
# Protocol: The activity of sGC was evaluated by measuring the amount of cGMP produced by human purified sGC.
# Using an sGCα 1 gene (NCBI accession No. BC028384.2) and an sGCβ1 gene (NCBI accession No. BC047620.1), an N-terminal FLAG tag-fused sGCα1 and an sGCβ1 expression baculovirus were prepared. These viruses were transfected into insect cells Sf9 (Cat. No. 11496-015, Gibco) to express a protein. From the cell lysates of the insect cells, heterodimers of the N-terminal FLAG tag-fused sGCα1 and sGCβ1 were purified with an M2 Affinity Gel (Sigma-Aldrich, Inc.) to obtain a human sGC.
# An Example compound was dissolved in DMSO and diluted 20-fold with ultrapure water. 2 μL of the diluted Example compound solution (maximum concentration of 100 μM), 2 μL of a substrate solution [0.5 μM triethanolamine buffer solution, 0.03 μM dithiothreitol, 0.01 μM GTP, 0.04 μM MgCl2, and 0.03 μM sodium nitroprusside (SNP)], and 6 μL of a human enzyme suspension were added to 384-well plates (manufactured by Greiner Bio-One), and incubated at room temperature for one hour. The measurement of the amount of cGMP was carried out, using an HTRF reagent (Cisbio).
# The sGC activation action of the Example compound was calculated as an Example compound concentration which gives 50% of a maximum activity (EC50), in which the maximum activity by the addition of a compound shown in Preparation Example 200, 8-(cyclohexylmethoxy)-N-[(1R)-2-hydroxy-1-phenylethyl]-2-methylimidazo[1,2-a]pyridine-3-carboxamide hydrochloride (maximum 100 μM), is taken as 100%. Further, the maximum activity of sGC with the addition of 8-(cyclohexylmethoxy)-N-[(1R)-2-hydroxy-1-phenylethyl]-2-methylimidazo[1,2-a]pyridine-3-carboxamide hydrochloride is 10-fold or more relative to the sGC activation without the addition of the compound, and it is recognized that the compound has a good sGC activating action. […] The test results of some Example compounds that are the compounds of the formula (I) of the present invention are shown below. Further, in Tables, Ex. represents Example number.
# [3] = system: average blood pressure of rats; test: Measurement of antihypertensive effect in vivo; parameters: species or system Wistar male rats; settings: oral
# Protocol: As the animals, Wistar male rats, 13- to 18-week (Japan SLC, Inc.) were used. Three days prior to administration of a test compound, a cannula (PE-50, Becton, Dickinson and Company, Japan) filled with heparin physiological saline (200 U/mL, Ajinomoto Pharmaceuticals Co., Ltd.) was inserted and placed in the common carotid artery under anesthesia with intraperitoneal administration of 60 mg/kg of pentobarbital. The other end of the cannula was subcutaneously exposed to the back of the neck. After the recovery period, the placed cannula was connected to a pressure transducer (Life Kit DTS DX-100, Nihon Kohden Corporation) to record the blood pressure waveform through an amplifier (AP-641G, Nihon Kohden Co., Ltd.) and PowerLab (ML870 PowerLab8/30 (AD Instruments Japan)). The heart rate was calculated using a heart rate measuring unit (AT-601G, Nihon Kohden Co., Ltd.). After stabilization of the blood pressure, the test compound was orally administered one time to measure the blood pressure and the heart rate over time. The test compounds were administered by appropriately adding N,N-dimethylformamide, Polyethylene Glycol 400, TWEEN 80, a 0.5% aqueous methylcellulose solution, and a 0.5 M aqueous sodium hydrogen carbonate solution, and 0.1 M hydrochloric acid therein according to the compounds and dissolving it.
# Further, the administration doses in Tables represent the administration doses for oral administration, and for example, 3 means 3 mg/kg. Further, the blood pressure reduction represents a maximum change value from the value before administration in the average blood pressure, and for example, −63 indicates reduction by 63 mmHg.
Compound,hind limb blood flow increasing action ([1]; 3 mg/kg),EC50 [2],also measured
"Cc1ncc(C(C)(CO)NC(=O)c2c(C)nc3c(OCc4c(F)cccc4F)cccn23)s1 (stereo not shown) [Example 2, 8-[(2,6-difluorobenzyl)oxy]-N-[1-hydroxy-2-(2-methyl-1,3-thiazol-5-yl)propan-2-yl]-2-methylimidazo[1,2-a]pyridine-3-carboxamide]",exhibited a blood flow increasing action,2600 nM,Blood pressure reduction (maximum change from value before administration in average blood pressure) ([3]; single dose 3 mg/kg): −56 mmHg
"CCn1nnc(C(C)(CO)NC(=O)c2c(C)nc3c(OCc4c(F)cccc4F)cccn23)n1 (stereo not shown) [Example 8, 8-[(2,6-difluorobenzyl)oxy]-N-[2-(2-ethyl-2H-tetrazol-5-yl)-1-hydroxypropan-2-yl]-2-methylimidazo[1,2-a]pyridine-3-carboxamide]",exhibited a blood flow increasing action,5700 nM,Blood pressure reduction (maximum change from value before administration in average blood pressure) ([3]; single dose 3 mg/kg): −29 mmHg
Cc1nc2c(OCc3c(F)cccc3F)cccn2c1C(=O)N[C@@](C)(CO)c1ccccc1 [Example 9],,720 nM,hind limb blood flow increasing action ([1]; 0.3 mg/kg): exhibited a blood flow increasing action; Blood pressure reduction (maximum change from value before administration in average blood pressure) ([3]; single dose 3 mg/kg): −63 mmHg
Cc1nc(C(C)(CO)NC(=O)c2c(C)nc3c(OCc4c(F)cccc4F)cccn23)no1 (stereo not shown) [Example 41],,5300 nM,hind limb blood flow increasing action ([1]; 0.3 mg/kg): exhibited a blood flow increasing action
Cc1nc2c(OCc3c(F)cccc3F)cccn2c1C(=O)NC(C)(CO)c1ccc(F)c(CO)c1 (stereo not shown) [Example 52],exhibited a blood flow increasing action,2200 nM,
Cc1nc2c(OCc3c(F)cccc3F)cccn2c1C(=O)NC(CO)(CO)c1ccc(F)cc1 [Example 54],exhibited a blood flow increasing action,2700 nM,Blood pressure reduction (maximum change from value before administration in average blood pressure) ([3]; single dose 3 mg/kg): −56 mmHg
Cc1nc2c(OCc3c(F)cccc3F)cccn2c1C(=O)N[C@]1(c2ccccn2)C[C@@H](O)[C@@H](O)C1 [Example 67],exhibited a blood flow increasing action,24000 nM,
Cc1cnc([C@@]2(NC(=O)c3c(C)nc4c(OCc5c(F)cccc5F)cccn34)C[C@@H](O)[C@@H](O)C2)s1 [Example 69],exhibited a blood flow increasing action,4600 nM,
Cc1nc2c(OCc3c(F)cccc3F)cccn2c1C(=O)NC(CO)(CO)c1ccc(Cl)cn1 [Example 70],,3800 nM,hind limb blood flow increasing action ([1]; 1 mg/kg): exhibited a blood flow increasing action
Cc1cnc(C(CO)(CO)NC(=O)c2c(C)nc3c(OCc4c(F)cccc4F)cccn23)s1 [Example 72],,2700 nM,hind limb blood flow increasing action ([1]; 1 mg/kg): exhibited a blood flow increasing action
Cc1nc2c(OCc3c(F)cccc3F)cccn2c1C(=O)NC(C)(CO)c1nnn(C2CC2)n1 (stereo not shown) [Example 76],exhibited a blood flow increasing action,5800 nM,
Cc1cnc([C@](C)(CO)NC(=O)c2c(C)nc3c(OCc4c(F)cccc4F)cccn23)s1 [Example 77],,1300 nM,hind limb blood flow increasing action ([1]; 0.3 mg/kg): exhibited a blood flow increasing action
CCn1nnc([C@H](CO)NC(=O)c2c(C)nc3c(OCc4c(F)cccc4F)cccn23)n1 [Example 81],,16000 nM,hind limb blood flow increasing action ([1]; 1 mg/kg): exhibited a blood flow increasing action
Cc1nc2c(OCc3c(F)cccc3F)cccn2c1C(=O)N[C@@H](CO)c1nnn(C(F)F)n1 [Example 83],,2700 nM,hind limb blood flow increasing action ([1]; 1 mg/kg): exhibited a blood flow increasing action
Cc1nc2c(OCc3c(F)cccc3F)cccn2c1C(=O)NC(C)(CO)c1nnc(C(F)(F)F)o1 (stereo not shown) [Example 91],,1500 nM,hind limb blood flow increasing action ([1]; 0.3 mg/kg): exhibited a blood flow increasing action
Cc1nc2c(OCc3c(F)cccc3F)cccn2c1C(=O)NC(CO)(CO)c1nnn(C(F)F)n1 [Example 96],,3400 nM,hind limb blood flow increasing action ([1]; 0.3 mg/kg): exhibited a blood flow increasing action; Blood pressure reduction (maximum change from value before administration in average blood pressure) ([3]; single dose 1 mg/kg): −21 mmHg
"Cc1nc2c(OCc3c(F)cccc3F)cccn2c1C(=O)N[C@@](C)(CO)c1nnn(C(F)F)n1 [Example 114, 8-[(2,6-difluorobenzyl)oxy]-N-{(2R)-2-[2-(difluoromethyl)-2H-tetrazol-5-yl]-1-hydroxypropan-2-yl}-2-methylimidazo[1,2-a]pyridine-3-carboxamide]",,730 nM,hind limb blood flow increasing action ([1]; 0.03 mg/kg): exhibited a blood flow increasing action; Blood pressure reduction (maximum change from value before administration in average blood pressure) ([3]; single dose 0.3 mg/kg): −35 mmHg
"Cc1nnc([C@](C)(CO)NC(=O)c2c(C)nc3c(OCc4c(F)cccc4F)cccn23)o1 [Example 117, 8-[(2,6-difluorobenzyl)oxy]-N-[(2S)-1-hydroxy-2-(5-methyl-1,3,4-oxadiazol-2-yl)propan-2-yl]-2-methylimidazo[1,2-a]pyridine-3-carboxamide]",,5500 nM,hind limb blood flow increasing action ([1]; 0.1 mg/kg): exhibited a blood flow increasing action; Blood pressure reduction (maximum change from value before administration in average blood pressure) ([3]; single dose 1 mg/kg): −35 mmHg
"Cc1nnc([C@](C)(CO)NC(=O)c2c(C)nc3c(OCc4c(F)cccc4F)cccn23)s1 [Example 118, 8-[(2,6-difluorobenzyl)oxy]-N-[(2S)-1-hydroxy-2-(5-methyl-1,3,4-thiadiazol-2-yl)propan-2-yl]-2-methylimidazo[1,2-a]pyridine-3-carboxamide]",,1100 nM,hind limb blood flow increasing action ([1]; 1 mg/kg): exhibited a blood flow increasing action; Blood pressure reduction (maximum change from value before administration in average blood pressure) ([3]; single dose 3 mg/kg): −61 mmHg
